Patent US20230094922A1, “METHODS OF THERAPEUTIC PROGNOSTICATION” (GENETIKAPLUS LTD., priority 2020, published 2023)

System: iPSC-derived cortical neurons
Experiment: RNA sequencing, differential gene expression: Bupropion-treated vs vehicle-only induced neurons (Tables 5, 6)
Assay type: cell-based, human
Description: iPSC differentiation into neurons-iPSCs were seeded at a density of 3×10^6 cells/well on a hESC-qualified Matrigel pre-coated 6-well plate and incubated at 37° C., 5% CO2 overnight. Differentiation was initiated the following day (day 0) after verifying that 100% confluency was reached. Differentiation media was added daily according to the following order: […]7 (day 15 onward) similar to a previously published protocol developed by for rapid differentiation to cortical neurons. The components of the described media, Q1-7, are provided in Appendix 1. Cells were assessed for differentiation efficiency and cell death on a daily basis. On day 9, differentiated neurons were re-plated on either 96-well plates (destined for staining) or 12-well plates (destined for RNA extraction) that were coated with 15 μg/mL Poly-ornithine diluted in PBS (overnight incubation at 37° C.), followed by 1 μg/mL Laminin and 2 μg/mL Fibronectin diluted in PBS (overnight incubation at 37° C.): Neurons were first rinsed with pre-warmed PBS and 1 ml/well of Accutase was added for 35 minutes at 37° C., 5% CO2. DNAse1 (0.5 mg/mL) was then added for 10 additional minutes. 3 ml of pre-warmed Neurobasal media was added to each well and neurons were gently collected using a 5 ml […]. Wells were then verified for the presence of any remaining neurons. Neurons were spun down and resuspended in Q6 media. Neurons were seeded at a density of 150,000 cells/cm^2 placed back at 37° C. Following four hours of incubation, media was changed to Q6 media (150 μl per 96-well and 1 ml per 12-well). […] RNA-sequencing samples were aligned to the GRCh38 reference genome using STAR aligner. TMM normalization of RNA read counts and differential gene expression analysis were carried out using edgeR. […] Cells were reprogrammed into iPSCs, following which iPSCs were differentiated into frontal cortical neuronal cells (see Materials and Methods). […] Another dose of drug or control was also administered at day 32. At day 35 neurons were either fixed for histological examination or isolated for RNA extraction.

[1] = 10 μM Bupropion vs vehicle, responder-derived neurons, day 35, PValue NS (not significant)
[2] = Bupropion vs vehicle only, p<0.05, over 60,000 genes probed

CC(NC(C)(C)C)C(=O)c1cccc(Cl)c1 (stereo not drawn) [Bupropion, 3-Chloro-N-tert-butyl-β-keto-α-methylphenethylamin]
logFC NFKBID expression (10 μM Bupropion vs vehicle, responder-derived neurons, day 35, PValue 0.003685448): −0.6042 | logFC TCF7 expression (10 μM Bupropion vs vehicle, responder-derived neurons, day 35, PValue 0.005666754): −0.3904 | logFC DUSP23 expression (10 μM Bupropion vs vehicle, responder-derived neurons, day 35, PValue 0.006214757): −0.4927 | logFC TENT5B expression (10 μM Bupropion vs vehicle, responder-derived neurons, day 35, PValue 0.008132328): −0.8021 | logFC UGT3A2 expression (10 μM Bupropion vs vehicle, responder-derived neurons, day 35, PValue 0.009321582): −0.4889 | logFC CCDC51 expression (10 μM Bupropion vs vehicle, responder-derived neurons, day 35, PValue 0.012079592): −0.2443 | logFC CTNS expression (10 μM Bupropion vs vehicle, responder-derived neurons, day 35, PValue 0.013463621): −0.2404 | logFC PYCARD expression (10 μM Bupropion vs vehicle, responder-derived neurons, day 35, PValue 0.013981248): −1.05 | logFC ABHD4 expression (10 μM Bupropion vs vehicle, responder-derived neurons, day 35, PValue 0.014582448): −0.3111 | logFC PTPRQ expression (10 μM Bupropion vs vehicle, responder-derived neurons, day 35, PValue 0.018081564): 0.89 | logFC SMPDL3B expression (10 μM Bupropion vs vehicle, responder-derived neurons, day 35, PValue 0.022812161): −0.7488 | logFC KLC3 expression (10 μM Bupropion vs vehicle, responder-derived neurons, day 35, PValue 0.023692875): −0.8533 | logFC PNKP expression (10 μM Bupropion vs vehicle, responder-derived neurons, day 35, PValue 0.024437941): −0.2172 | logFC SPNS1 expression (10 μM Bupropion vs vehicle, responder-derived neurons, day 35, PValue 0.024838304): −0.7022 | logFC FAM117A expression (10 μM Bupropion vs vehicle, responder-derived neurons, day 35, PValue 0.025868873): −0.2485 | logFC PPL expression (10 μM Bupropion vs vehicle, responder-derived neurons, day 35, PValue 0.026069274): −0.3932 | logFC ZNF425 expression (10 μM Bupropion vs vehicle, responder-derived neurons, day 35, PValue 0.026180649): −0.2317 | logFC MT2A expression (Table 6, downregulated) (10 μM Bupropion vs vehicle, responder-derived neurons, day 35, PValue 0.02632325): −0.7705 | logFC COX16 expression (10 μM Bupropion vs vehicle, responder-derived neurons, day 35, PValue 0.026606667): 0.3985 | logFC RSAD2 expression (10 μM Bupropion vs vehicle, responder-derived neurons, day 35, PValue 0.026606947): 0.9753 | logFC PPP1R1B expression (10 μM Bupropion vs vehicle, responder-derived neurons, day 35, PValue 0.026677416): −0.677 | logFC LLPH expression (10 μM Bupropion vs vehicle, responder-derived neurons, day 35, PValue 0.026874183): 0.1758 | logFC CKS1B expression (10 μM Bupropion vs vehicle, responder-derived neurons, day 35, PValue 0.02807621): −0.3153 | logFC LGR6 expression (10 μM Bupropion vs vehicle, responder-derived neurons, day 35, PValue 0.028853165): −0.6091 | logFC TSTD2 expression (10 μM Bupropion vs vehicle, responder-derived neurons, day 35, PValue 0.028984217): 0.1932 | logFC HS3ST5 expression (10 μM Bupropion vs vehicle, responder-derived neurons, day 35, PValue 0.028999172): 0.5251 | logFC ART5 expression (10 μM Bupropion vs vehicle, responder-derived neurons, day 35, PValue 0.030155652): −0.5082 | logFC ADRA2B expression (10 μM Bupropion vs vehicle, responder-derived neurons, day 35, PValue 0.031233579): −0.7451 | logFC ZNF394 expression (10 μM Bupropion vs vehicle, responder-derived neurons, day 35, PValue 0.031885505): −0.1977 | logFC CHMP4A expression (10 μM Bupropion vs vehicle, responder-derived neurons, day 35, PValue 0.031923817): 0.3939 | logFC ETV5 expression (10 μM Bupropion vs vehicle, responder-derived neurons, day 35, PValue 0.031953602): −0.2432 | logFC VWA2 expression (10 μM Bupropion vs vehicle, responder-derived neurons, day 35, PValue 0.033110679): −0.8249 | logFC CDC42BPG expression (10 μM Bupropion vs vehicle, responder-derived neurons, day 35, PValue 0.034205433): −0.6386 | logFC PSD3 expression (10 μM Bupropion vs vehicle, responder-derived neurons, day 35, PValue 0.034363174): 0.2947 | logFC TRAF3IP2 expression (10 μM Bupropion vs vehicle, responder-derived neurons, day 35, PValue 0.035638975): −0.342 | logFC TXNRD2 expression (10 μM Bupropion vs vehicle, responder-derived neurons, day 35, PValue 0.036129679): −0.3971 | logFC RAB43 expression (10 μM Bupropion vs vehicle, responder-derived neurons, day 35, PValue 0.036339642): −0.7667 | logFC APOE expression (10 μM Bupropion vs vehicle, responder-derived neurons, day 35, PValue 0.036466348): −0.4756 | logFC TYW1B expression (10 μM Bupropion vs vehicle, responder-derived neurons, day 35, PValue 0.037441749): −0.2836 | logFC ARL17B expression (10 μM Bupropion vs vehicle, responder-derived neurons, day 35, PValue 0.037774775): 0.4487 | logFC TOM1 expression (10 μM Bupropion vs vehicle, responder-derived neurons, day 35, PValue 0.039328923): −0.2212 | logFC FGF1 expression (10 μM Bupropion vs vehicle, responder-derived neurons, day 35, PValue 0.040753088): 0.7441 | logFC GPR89A expression (10 μM Bupropion vs vehicle, responder-derived neurons, day 35, PValue 0.040776978): −0.3135 | logFC HAUS8 expression (10 μM Bupropion vs vehicle, responder-derived neurons, day 35, PValue 0.040813288): −0.3377 | logFC TNNI3 expression (10 μM Bupropion vs vehicle, responder-derived neurons, day 35, PValue 0.04085042): −0.4473 | logFC INMT expression (10 μM Bupropion vs vehicle, responder-derived neurons, day 35, PValue 0.04107423): 0.8156 | logFC LHFPL3 expression (10 μM Bupropion vs vehicle, responder-derived neurons, day 35, PValue 0.041076888): 0.8454 | logFC TJP3 expression (10 μM Bupropion vs vehicle, responder-derived neurons, day 35, PValue 0.041258334): −0.4285 | logFC RNASEK expression (10 μM Bupropion vs vehicle, responder-derived neurons, day 35, PValue 0.041364592): −0.4148 | logFC MACROD1 expression (10 μM Bupropion vs vehicle, responder-derived neurons, day 35, PValue 0.041485982): −0.4078 | logFC DDX55 expression (10 μM Bupropion vs vehicle, responder-derived neurons, day 35, PValue 0.041521555): −0.177 | logFC MAP4K1 expression (10 μM Bupropion vs vehicle, responder-derived neurons, day 35, PValue 0.041777603): −0.4541 | logFC MADCAM1 expression (10 μM Bupropion vs vehicle, responder-derived neurons, day 35, PValue 0.042721026): −0.6346 | logFC NMRK2 expression (10 μM Bupropion vs vehicle, responder-derived neurons, day 35, PValue 0.042934722): −0.915 | logFC RARRES2 expression (10 μM Bupropion vs vehicle, responder-derived neurons, day 35, PValue 0.044126316): −0.5614 | logFC GABRD expression (10 μM Bupropion vs vehicle, responder-derived neurons, day 35, PValue 0.044432972): −0.661 | logFC SCN9A expression (10 μM Bupropion vs vehicle, responder-derived neurons, day 35, PValue 0.044462789): 0.653 | logFC CTSD expression (10 μM Bupropion vs vehicle, responder-derived neurons, day 35, PValue 0.044610728): −0.3042 | logFC MINDY3 expression (10 μM Bupropion vs vehicle, responder-derived neurons, day 35, PValue 0.044932218): 0.1907 | logFC FBXO2 expression (10 μM Bupropion vs vehicle, responder-derived neurons, day 35, PValue 0.044969345): −0.5297 | logFC MT1X expression (10 μM Bupropion vs vehicle, responder-derived neurons, day 35, PValue 0.045842417): −0.6858 | logFC LRRC2 expression (10 μM Bupropion vs vehicle, responder-derived neurons, day 35, PValue 0.045853063): −0.8234 | logFC ZFP69B expression (10 μM Bupropion vs vehicle, responder-derived neurons, day 35, PValue 0.046824204): 0.2565 | logFC SLC45A2 expression (10 μM Bupropion vs vehicle, responder-derived neurons, day 35, PValue 0.046871029): −1.05 | logFC KLHL21 expression (10 μM Bupropion vs vehicle, responder-derived neurons, day 35, PValue 0.047318696): −0.2723 | logFC RILPL1 expression (10 μM Bupropion vs vehicle, responder-derived neurons, day 35, PValue 0.047560251): −0.1692 | logFC PSMB10 expression (10 μM Bupropion vs vehicle, responder-derived neurons, day 35, PValue 0.048107795): −0.5669 | logFC LHPP expression (10 μM Bupropion vs vehicle, responder-derived neurons, day 35, PValue 0.048445403): −0.2669 | logFC RABEP2 expression (10 μM Bupropion vs vehicle, responder-derived neurons, day 35, PValue 0.049224822): −0.2496 | logFC LARGE2 expression (10 μM Bupropion vs vehicle, responder-derived neurons, day 35, PValue 0.049340025): −0.566 | logFC ZNF221 expression (10 μM Bupropion vs vehicle, responder-derived neurons, day 35, PValue 0.049596306): 0.3254 | logFC LIN37 expression (10 μM Bupropion vs vehicle, responder-derived neurons, day 35, PValue 3.06E−05): −0.8411 | logFC APOL1 expression [1]: −0.7489 | logFC ATP8B4 expression [1]: −0.6945 | logFC CA3 expression [1]: 0.6571 | logFC CDK6 expression [1]: 0.2579 | logFC CORT expression [1]: 0.6431 | logFC CXCL11 expression (Table 6, downregulated) [1]: −1.176 | logFC ESR2 expression [1]: 0.4833 | logFC GOLGA8H expression [1]: −0.565 | logFC GRPR expression [1]: 0.6268 | logFC MT1E expression [1]: 2.123 | logFC MT2A expression (Table 5, upregulated) [1]: 1.378 | logFC PITX2 expression [1]: 0.9302 | logFC SEPTIN5 expression [1]: 0.5877 | number of genes significantly downregulated in responders after treatment, but not in non-responders [2]: 57 genes | number of genes significantly upregulated in responders after treatment, but not in non-responders [2]: 18 genes
